Test [1] has as its system pupil. Description: Pupil diameter after sequential intracameral injections in a sedated rabbit (Example 1). Format: in vivo, New Zealand albino rabbit. Particulars: for Pupil Diameter: 5 min after injection. How it is done:
One New Zealand albino rabbit (2-4Kg) was sedated with an intramuscular injection of a 1:1 mixture of ketamine (Vetalar, Parke-Davis and xylazine (Rompum, Haver-Lockhart). The pupil diameters of both eyes were measured under standard room lighting with an optistick and recorded. The right eye was injected intracamerally with 100ng of thromboxane B₂ (12ul). The contralateral eye was injected with an equal volume of the vehicle solution, 0.05% BSA (Bovine Serum Albumin) in 0.01N CH₃COOH. Hamilton syringes with 30 gauge needles were used for the injection. Five minutes later the pupil diameters of both eyes were measured and recorded. Sequential injections of thromboxane B₂ (Sigma) were made into the right eye and an equal volume of vehicle into the left. Five minutes after each injection the pupil diameters were measured and recorded. A total of three injections of thromboxane B₂ (TXB2) were administered to the right eye; 100ng, 1ug, 10ug (12ul). After the last injection of TXB2, carbachol, 200ng (lul) was administered to both eyes, intracamerally, and the pupil diameters were measured after five minutes.

The subject of test [2] is pupil. Description: Pupil diameter after intracameral injection in flurbiprofen-pretreated sedated rabbits (Example 2). The class given is in vivo, New Zealand albino rabbits. How it is done:
Seven New Zealand albino rabbits were treated, topically, with 0.03% flurbiprofen (Ocufen, Allergan) every 1/2 hour for two hours to inhibit endogenous synthesis of thromboxane. Following flurbiprofen treatment the rabbits were sedated with a 1:1 mixture of Ketamine and Rompum and the pupil diameters of both eyes were measured and recorded as before. 50ug (6ul) of TXB2 was injected intracamerally into the right eye of each rabbit and an equal volume of vehicle was administered to the left eyes. The pupil diameters were measured five minutes following the injections. This does of TXB2 was chosen because it is 1000 times the concentration of TXB2 found in clotting blood in rabbits (Ali and Mohammed, 1986). Carbachol 200ng (1ul) was injected into both eyes and the pupil diameters recorded after a five minute and a ten minute duration.
Refer to Figure 1. Next, both eyes were injected with 200ng (1ul) of carbachol.

Test [3] has as its system pupil. Description: Pupil diameter after intracameral injection in flurbiprofen-pretreated sedated cats (Example 3). Format: in vivo, domestic cats. The conditions noted are these: cat. How it is done: Fifteen male and female domestic cats were treated topically with 0.03% flurbiprofen (in both eyes) every 1/2 hours for two hours to inhibit endogenous thromboxane synthesis. The cats were sedated with 0.5 to 0.75ml of Rompum (20mg/ml) by intramuscular injection. […] The pupil diameters of both eyes were measured with an optistick and recorded. The right eye of each cat was injected intracamerally with one concentration of thromboxane B₂ ranging from a high of 500ng (10ul) to a low of 10ng (10ul). The contralateral eye was injected with an equal volume of the vehicle: saline. The pupil diameters were measured five and ten minutes after the injections. The cats were allowed to regain consciousness while in the laboratory.
Increasing concentrations of TXB2 led to greater constriction of the pupil (miosis). Maximum constriction of the pupil occurred at a dose of 500ng. The ED₅₀ was 70ng. Refer to Figure 2. […] The filled circles are the mean pupil diameters of the TXB2 treated eyes. The pupil diameters of the vehicle treated eyes are shown by the open circles.

In test [4] the test system is pupil. Description: Pupil diameter after topical drops in awake monkeys (Example 4). Format: in vivo, Cebus apella monkeys. The conditions noted are these: Cebus monkeys, total dose per eye 2.5 micrograms to 1 mg. How it is done: Eight Cebus apella monkeys were treated topically with thromboxane B₂ in one eye and normal saline in the contralateral eye. The monkeys were awake and alert and seated in primate chairs for the duration of the experiment. The thromboxane B₂ concentrations used were 0.625ug, 1.25ug, 6.25ug, 12.5ug, 62.5ug, 125.0ug and 250ug per drop. A 50ul drop was administered following the baseline pupil diameter measurement. Three more drops were given at 15 minute intervals. Total dose per eye after 4 drops ranged between 2.5 micrograms and 1 mg. Pupil diameter was measured just before each administration. The last measurement was taken at 60 minutes.
In the eight Cebus monkeys with TXB2-treated eyes, the pupil diameters decreased 0.75 to […] at 30 minutes.
The range of doses used probably represented the upper end of the dose-response curve. The 0.75 to […] pupil constriction represents a significant response in the small Cebus eye.

Structures are written as SMILES.

On to `C[N+](C)(C)CCOC(N)=O` [Carbachol, carbachol, reference compound], for which the pupil constriction entry in the test with pupil [1] (rabbit #8394, carbachol 200ng (1ul) intracameral, both eyes) is “constricted an expected amount”. In addition, the Pupil Diameter with pupil [1] (rabbit #8394, eye OD (previously TXB2 treated), carbachol 200ng intracameral) was 3 mm; in the test with pupil [1] (rabbit #8394, eye OS (previously vehicle treated), carbachol 200ng intracameral), 1.5 mm; with pupil [2] (carbachol 200ng (1ul) injected into both eyes after TXB2 or vehicle, measured after 5 and 10 min) it was “decreased significantly and to the same degree in both eyes”.
`CCCCC[C@H](O)/C=C/[C@H]1OC(O)C[C@H](O)[C@@H]1C/C=C\CCCC(=O)O` (some centres unmarked) [TXB2, thromboxane B₂]: the “dose at which maximum constriction of the pupil occurred” value in the test with pupil [3] (intracameral, doses 10ng to 500ng (10ul)) is 500 ng. In addition, the “effect on pupil diameter” value in the test with pupil [3] (intracameral, doses 10ng to 500ng, measured 5 and 10 min after injection) is on record as “dose-related effect on pupil diameter”. For the same compound, in the test on pupil [3] (pupil constriction (miosis), intracameral doses 10ng to 500ng (10ul), flurbiprofen pretreatment), the ED₅₀ is listed as 70 ng. The Pupil Diameter in the test on pupil [1] (rabbit #8394, eye OD, TXB2 100ng intracameral (12ul), baseline 6.0) is 5 mm; with pupil [1] (rabbit #8394, eye OD, second sequential TXB2 dose 1ug intracameral), 5 mm; in the test on pupil [1] (rabbit #8394, eye OD, third sequential TXB2 dose 10ug intracameral), 5.5 mm. Further, the “changes in pupil diameter” value in the test with pupil [1] (rabbit #8394, three sequential intracameral doses 100ng, 1ug and 10ug) is “no significant changes in pupil diameter”. Further, the “dose-response relationship of pupil constriction” value in the test on pupil [4] is reported as “no dose-response relationship was observed”. In the test with pupil [2] (rabbits, topical 0.03% flurbiprofen pretreatment, TXB2 50ug intracameral, then carbachol 200ng), the “ability of the pupillary sphincter to contract when stimulated by carbachol” value is “nor TXB2 administration affected the ability of the pupillary sphincter to contract”. For the same compound, the “pupil diameters versus vehicle eyes” value in the test with pupil [2] (seven rabbits, 0.03% flurbiprofen pretreatment, 50ug (6ul) intracameral, 5 min after injection) is listed as “no different from those eyes receiving vehicle”.

For the origin of these results see EP0310322A2, “Use of thromboxane B2 to constrict the pupil and lower intraocular pressure” (ALLERGAN, INC, priority 1987, dated 1989).
